# Test results from patent publication US9856279B2 (AGIOS PHARMACEUTICALS, INC, priority 2011, dated 2018).
# pIC50: −log10 of the molar value.
# Biological target: IDH1 R132H (Homo sapiens, UniProt O75874, R132H)
# Experiment: Assay for IDH1 R132H inhibitors (NADPH/aKG, resazurin detection)
# Format: biochemical
# Details: Table 3; enzyme assay, 50 minutes at room temperature; read-out: IC50 (IDH1 R132H Inhibition)
# Procedure, shortened: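 Compound added to substrate mix (8 uM NADPH, 2 mM aKG), then enzyme mix (0.2 μg/ml IDH1 R132H); 50 min RT in 20 mM Tris pH 7.5, 150 mM NaCl, 10 mM MgCl2, 0.03% BSA. Resazurin detection mix (30 μM) 5 min RT; resorufin fluorescence Ex544/Em590.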
# Chain of IDH1 R132H (O75874 whole entry R132H): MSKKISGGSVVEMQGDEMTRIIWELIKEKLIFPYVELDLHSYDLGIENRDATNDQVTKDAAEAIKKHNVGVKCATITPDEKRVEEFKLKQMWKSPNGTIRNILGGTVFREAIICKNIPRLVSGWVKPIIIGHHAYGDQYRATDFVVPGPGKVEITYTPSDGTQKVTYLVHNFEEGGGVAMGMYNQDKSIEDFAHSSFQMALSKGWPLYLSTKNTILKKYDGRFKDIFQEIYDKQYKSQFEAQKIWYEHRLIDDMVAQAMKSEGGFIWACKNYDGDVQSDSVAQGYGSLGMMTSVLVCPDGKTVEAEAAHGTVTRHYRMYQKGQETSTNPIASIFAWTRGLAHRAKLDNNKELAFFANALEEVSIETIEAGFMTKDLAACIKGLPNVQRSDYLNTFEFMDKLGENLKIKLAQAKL
row,pIC50,SMILES
1,5.30 to 6.00,"CC(C)c1nc(N2CCN(C(=O)Cc3ccccc3)C(C)C2)c(C#N)cc1-c1ccccc1 (stereo in doubt) [Compound 145, (R)-6-isopropyl-2-(3-methyl-4-(2-phenylacetyl)piperazin-1-yl)-5-phenylnicotinonitrile]"
2,5.30 to 6.00,"CC(C)c1nc(N2CCN(C(=O)c3ccoc3)[C@@H](C)C2)c(C#N)cc1-c1ccccc1 [Compound 144, (S)-2-(4-(furan-3-carbonyl)-3-methylpiperazin-1-yl)-6-isopropyl-5-phenylnicotinonitrile]"
3,≥ 6.00,"COCCC(=O)N1CCN(c2nc(C(C)C)c(-c3cncc4ccccc34)cc2C#N)C[C@H]1C [Compound 234, (R)-6-isopropyl-5-(isoquinolin-4-yl)-2-(4-(3-methoxypropanoyl)-3-methylpiperazin-1-yl)nicotinonitrile]"
4,5.30 to 6.00,"CC(C)c1nc(N2CCN(C(=O)c3ccoc3)[C@H](C)C2)c(C#N)cc1-c1ccoc1 [Compound 204, (R)-2-(4-(furan-3-carbonyl)-3-methylpiperazin-1-yl)-5-(furan-3-yl)-6-isopropylnicotinonitrile]"
5,≥ 6.00,"COCCC(=O)N1CCN(c2nc(C3CC3)c(-c3ccc(C)c(F)c3)cc2C#N)C[C@H]1C [Compound 235, (R)-6-cyclopropyl-5-(3-fluoro-4-methylphenyl)-2-(4-(3-methoxypropanoyl)-3-methylpiperazin-1-yl)nicotinonitrile]"
6,5.30 to 6.00,"COCCC(=O)N1CCN(c2nc(-c3ccccc3)c(-c3ccccc3)cc2C#N)C[C@H]1C [Compound 240, (R)-2-(4-(3-methoxypropanoyl)-3-methylpiperazin-1-yl)-5,6-diphenylnicotinonitrile]"
7,4.82 to 5.30,COc1ccccc1-c1cc(C(C)C)nc(N2CCN(C(=O)c3c[nH]c4ccccc34)CC2)c1C#N [Compound 106]
8,4.82 to 5.30,"CC(C)c1nc(N2CCN(C(=O)c3ccco3)CC2)c(C#N)cc1-c1ccccc1 [Compound 109, 2-(4-(furan-2-carbonyl)piperazin-1-yl)-6-isopropyl-5-phenylnicotinonitrile]"
9,5.30 to 6.00,"Cc1ccc(-c2cc(C#N)c(N3CCN(C(=O)c4ccoc4)[C@H](C)C3)nc2C(C)C)cc1 [Compound 179, (R)-2-(4-(furan-3-carbonyl)-3-methylpiperazin-1-yl)-6-isopropyl-5-p-tolylnicotinonitrile]"
10,5.30 to 6.00,"Cc1ccc(-c2cc(C#N)c(N3CCN(C(=O)Cc4cccs4)[C@H](C)C3)nc2C(C)C)cc1 [Compound 181, (R)-6-isopropyl-2-(3-methyl-4-(2-(thiophen-2-yl)acetyl)piperazin-1-yl)-5-p-tolylnicotinonitrile]"
11,4.82 to 5.30,"COc1ccccc1-c1cc(C(C)C)nc(N2CCN(C(=O)c3ccco3)C(C)C2)c1C#N (stereo not drawn) [Compound 147, 2-(4-(furan-2-carbonyl)-3-methylpiperazin-1-yl)-6-isopropyl-4-(2-methoxyphenyl)nicotinonitrile]"
12,4.82 to 5.30,"CC(C)c1nc(N2C[C@@H](C)N(C(=O)c3ccoc3)[C@@H](C)C2)c(C#N)cc1-c1ccccc1 [Compound 141, 2-((3S,5R)-4-(furan-3-carbonyl)-3,5-dimethylpiperazin-1-yl)-6-isopropyl-5-phenylnicotinonitrile]"
13,5.30 to 6.00,"CC(C)c1nc(N2CCN(C(=O)c3c[nH]c4ccccc34)CC2c2ccccc2)c(C#N)cc1-c1ccccc1 (stereo not drawn) [Compound 168, 2-(4-(1H-indole-3-carbonyl)-2-phenylpiperazin-1-yl)-6-isopropyl-5-phenylnicotinonitrile]"
14,5.30 to 6.00,"COCCC(=O)N1CCN(c2nc(C3CC3)c(-c3cccc(OC(F)(F)F)c3)cc2C#N)C[C@H]1C [Compound 228, (R)-6-cyclopropyl-2-(4-(3-methoxypropanoyl)-3-methylpiperazin-1-yl)-5-(3-(trifluoromethoxy)phenyl)-nicotinonitrile]"
15,5.30 to 6.00,"COCCC(=O)N1CCN(c2nc(C(C)C)c(-c3ccc(C)c(C)c3)cc2C#N)C[C@H]1C [Compound 220, (R)-5-(3,4-dimethylphenyl)-6-isopropyl-2-(4-(3-methoxypropanoyl)-3-methylpiperazin-1-yl)nicotinonitrile]"
16,≥ 6.00,"COCCC(=O)N1CCN(c2nc(C3CC3)c(-c3ccc(F)cc3)c(C)c2C#N)C[C@H]1C [Compound 241, (R)-6-cyclopropyl-5-(4-fluorophenyl)-2-(4-(3-methoxypropanoyl)-3-methylpiperazin-1-yl)-4-methylnicotinonitrile]"
17,5.30 to 6.00,"CC(C)c1cc(-c2cccc(F)c2)c(C#N)c(N2CCN(C(=O)c3ccoc3)C(C)C2)n1 (stereo not drawn) [Compound 128, 4-(3-fluorophenyl)-2-(4-(furan-3-carbonyl)-3-methylpiperazin-1-yl)-6-isopropylnicotinonitrile]"
18,5.30 to 6.00,"CC[C@@H]1CN(c2nc(C(C)C)c(-c3ccccc3)cc2C#N)CCN1C(=O)Cc1cccs1 [Compound 174, (R)-2-(3-ethyl-4-(2-(thiophen-2-yl)acetyl)piperazin-1-yl)-6-isopropyl-5-phenylnicotinonitrile]"
19,5.30 to 6.00,"COCCC(=O)N1CCN(c2nc(C(C)C)c(-c3cccc(OC(F)(F)F)c3)cc2C#N)C[C@H]1C [Compound 230, (R)-6-isopropyl-2-(4-(3-methoxypropanoyl)-3-methylpiperazin-1-yl)-5-(3-(trifluoromethoxy)phenyl)nicotinonitrile]"

# Same assay, conditions: enzyme assay of Example 12; read-out: IDH1R132H IC50
row,pIC50,SMILES
1,6.00 to 6.30,"CS(=O)(=O)n1cc(-c2cc(C#N)c(N3CCN(C(=O)C4CC4)[C@H](C4CC4)C3)nc2C2CC2)cn1 [Compound 502, (R)-2-(4-(cyclopropanecarbonyl)-3-cyclopropylpiperazin-1-yl)-6-cyclopropyl-5-(1-(methylsulfonyl)-1H-pyrazol-4-yl)nicotinonitrile]"
2,6.00 to 6.30,"COCCC(=O)N1CCN(c2nc(C3CC3)c(N3CCOCC3)cc2C#N)C[C@H]1C [Compound 375, (R)-6-cyclopropyl-2-(4-(3-methoxypropanoyl)-3-methylpiperazin-1-yl)-5-morpholinonicotinonitrile]"
3,> 6.30,"C=Cc1ccnc(Nc2cc(C#N)c(N3CCN(C(=O)CCCCC)[C@H](C4CC4)C3)nc2C2CC2)c1 [Compound 830, (R)-6-cyclopropyl-2-(3-cyclopropyl-4-hexanoylpiperazin-1-yl)-5-(4-vinylpyridin-2-ylamino)nicotinonitrile]"
4,6.00 to 6.30,"COCCC(=O)N1CCN(c2nc(C3CC3)c(-c3ccc4[nH]cc(C(=O)C(F)(F)F)c4c3)cc2C#N)C[C@H]1C [Compound 317, (R)-6-cyclopropyl-2-(4-(3-methoxypropanoyl)-3-methylpiperazin-1-yl)-5-(3-(2,2,2-trifluoroacetyl)-1H-indol-5-yl)nicotinonitrile]"
5,> 6.30,"COCCC(=O)N1CCN(c2nc(C3CC3)c(-c3cnn(Cc4ccccc4)c3)c(C)c2C#N)C[C@H]1C [Compound 358, (R)-5-(1-benzyl-1H-pyrazol-4-yl)-6-cyclopropyl-2-[4-(3-methoxy-propionyl)-3-methyl-piperazin-1-yl]-4-methyl-nicotinonitrile]"
6,6.00 to 6.30,"CCC(=O)Nc1cccc(-c2cc(C#N)c(N3CCN(C(=O)C4CC4)[C@H](C4CC4)C3)nc2C2CC2)c1 [Compound 450, (R)—N-(3-(5-cyano-6-(4-(cyclopropanecarbonyl)-3-cyclopropylpiperazin-1-yl)-2-cyclopropylpyridin-3-yl)phenyl)propionamide]"
7,> 6.30,"C[C@@H]1CN(c2nc(C3CC3)c(-c3cccc4ncoc34)cc2C#N)CCN1C(=O)C1CC1 [Compound 482, (R)-5-(benzo[d]oxazol-7-yl)-2-(4-(cyclopropanecarbonyl)-3-methylpiperazin-1-yl)-6-cyclopropylnicotinonitrile]"
8,> 6.30,"COCCC(=O)N1CCN(c2nc(C3CC3)c(-c3ccc(C(=O)N4CCCC4)cc3)c(C)c2C#N)C[C@H]1C [Compound 333, (R)-6-cyclopropyl-2-[4-(3-methoxy-propionyl)-3-methyl-piperazin-1-yl]-4-methyl-5-[4-(pyrrolidine-1-carbonyl)-phenyl]-nicotinonitrile]"
9,6.00 to 6.30,"C=Cc1ccnc(Nc2cc(C#N)c(N3CCN(C(=O)CN4CCCC4=O)[C@H](C4CC4)C3)nc2C2CC2)c1 [Compound 816, (R)-6-cyclopropyl-2-(3-cyclopropyl-4-(2-(2-oxopyrrolidin-1-yl)acetyl)piperazin-1-yl)-5-((4-vinylpyridin-2-yl)amino)nicotinonitrile]"
10,6.00 to 6.30,"CSCn1cc(-c2cc(C#N)c(N3CCN(C(=O)C4CC4)[C@H](C4CC4)C3)nc2C2CC2)cn1 [Compound 510, (R)-2-(4-(cyclopropanecarbonyl)-3-cyclopropylpiperazin-1-yl)-6-cyclopropyl-5-(1-((methylthio)methyl)-1H-pyrazol-4-yl)nicotinonitrile]"
11,> 6.30,"N#Cc1cc(-c2cccc3nccnc23)c(C2CC2)nc1N1CCN(C(=O)C2CC2)[C@H](C2CC2)C1 [Compound 531, (R)-2-(4-(cyclopropanecarbonyl)-3-cyclopropylpiperazin-1-yl)-6-cyclopropyl-5-(quinoxalin-5-yl)nicotinonitrile]"
12,> 6.30,"Cc1cc2c(-c3cc(C#N)c(N4CCN(C(=O)CC(F)(F)F)[C@H](C5CC5)C4)nc3C3CC3)cccc2cn1 [Compound 471, (R)-6-cyclopropyl-2-(3-cyclopropyl-4-(3,3,3-trifluoropropanoyl)piperazin-1-yl)-5-(3-methylisoquinolin-5-yl)nicotinonitrile]"
13,> 6.30,COCCC(=O)N1CCN(c2nc(C3CC3)c(OCc3cccc(N)c3)cc2C#N)C[C@H]1C [Compound 341]
14,> 6.30,"C=Cc1ccnc(Nc2cc(C#N)c(N3CCN(C(=O)/C=C/CCO)[C@H](C4CC4)C3)nc2C2CC2)c1 [Compound 798, (R,E)-6-cyclopropyl-2-(3-cyclopropyl-4-(5-hydroxypent-2-enoyl)piperazin-1-yl)-5-((4-vinylpyridin-2-yl)amino)nicotinonitrile]"
